Some results are limits rather than exact numbers.

The test system of data set [1] is Venturia inaequalis. The data set is described as follows: Apple scab (VENTIN) disease control. In kind it is in vivo. Conditions: 24 h, High volume application, 1 Day Protectant, read-out: VENTIN 1 DP disease control. The method, then:
Technical grades of materials were dissolved in acetone, which were then mixed with nine volumes of water containing 110 ppm Triton X-100. The fungicide solutions were applied onto wheat seedlings using an automated booth sprayer to run-off. All sprayed plants were allowed to air dry prior to further handling. All fungicides were evaluated using the aforementioned method for their activity vs. all target diseases. Wheat leaf blotch and brown rust activity were also evaluated using track spray applications, in which case the fungicides were formulated as EC formulations, containing 0.1% Trycol 5941 in the spray solutions. Apple seedlings (variety McIntosh) were grown in soil-less Metro mix, with one plant per pot. Seedlings with two expanding young leaves at the top (older leaves at bottom of the plants were trimmed) were used in the test. Plants were inoculated with a spore suspension of Venturia inaequalis 24 hr after fungicide treatment and kept in a 22° C. dew chamber with 100% RH for 48 hr, and then moved to a greenhouse set at 20° C. for disease to develop. Fungicide formulation, application and disease assessment on the sprayed leaves followed the procedures as described in the Example A.

As to `COc1ccnc(C(=O)N[C@H]2CCC[C@H](Oc3ccccc3)[C@@H](Oc3ccccc3)[C@H](C)OC2=O)c1OCOC(C)=O` [F20], the pest or weed control at 100 ppm in data set [1] fell in the range of 0 to 80%.
A word on the melting point: it is the temperature of the solid-liquid transition. With `COc1ccnc(C(=O)N[C@H]2CCC[C@H](Oc3ccccc3)[C@@H](OCC(C)C)[C@H](C)OC2=O)c1OCOC(C)=O` [F28], the melting point fell in the range of 135 to 137 °C. Besides, the pest or weed control at 100 ppm in data set [1] was 80 to 100%.
As for `COc1ccnc(C(=O)N[C@H]2CCC[C@H](OCC(C)C)[C@@H](OCC(C)C)[C@H](C)OC2=O)c1OCOC(C)=O` [F29], in data set [1], the pest or weed control at 100 ppm was in the range of 80 to 100%.
As to `COc1ccnc(C(=O)N[C@H]2CCC[C@H](OCc3ccccc3)[C@@H](OCc3ccccc3)[C@H](C)OC2=O)c1OCOC(C)=O` [F30], the melting point was in the range of 42 to 52 °C. The pest or weed control at 100 ppm in data set [1] lay in the range of 80 to 100%.
Regarding `COc1ccnc(C(=O)N[C@H]2CCC[C@H](OCc3ccccc3)[C@@H](Oc3ccccc3)[C@H](C)OC2=O)c1OCOC(C)=O` [F31], the melting point lay within 49 to 55 °C.
Turning to `COc1ccnc(C(=O)N[C@H]2CCC[C@H](OCC(C)C)[C@@H](OC3CCCC3)[C@H](C)OC2=O)c1OCOC(C)=O` [F39], the pest or weed control at 100 ppm in data set [1] lay within 80 to 100%.
Same read-out and setting: then `CCCO[C@H]1CCC[C@H](NC(=O)c2nccc(OC)c2OC(C)=O)C(=O)O[C@@H](C)[C@@H]1Oc1ccccc1` [F141], with 0 to 80%.
On the same count and under the same terms, then `CCOCC(=O)OCOc1c(OC)ccnc1C(=O)N[C@H]1CCC[C@H](Oc2ccccc2)[C@@H](OC(=O)C2CCCC2)[C@H](C)OC1=O` [F237], with 80 to 100%.
The same measure, in the same setting: then `COc1ccnc(C(=O)N[C@H]2CCC[C@H](Oc3ccccc3)[C@@H](OC(=O)C3CC3)[C@H](C)OC2=O)c1OCOC(=O)C(C)C` [F241], with 0 to 80%; and `COc1ccnc(C(=O)N[C@H]2CCC[C@H](Oc3ccccc3)[C@@H](OC(=O)C3CC3)[C@H](C)OC2=O)c1OC(C)=O` [F242], with 0 to 80%.
For `C=C(C)CO[C@H]1CCC[C@H](NC(=O)c2nccc(OC)c2OCOC(C)=O)C(=O)O[C@@H](C)[C@@H]1OC` [F250], the pest or weed control at 100 ppm in data set [1] lay within 80 to 100%.
The same measure, in the same setting: then `COc1ccnc(C(=O)N[C@H]2CCC[C@H](OCC(C)C)[C@@H](OC)[C@H](C)OC2=O)c1OCOC(C)=O` [F251], with below 0%.
Still for that read-out and setting: then `COc1ccnc(C(=O)N[C@H]2CCC[C@H](Oc3ccccc3)[C@@H](OC)[C@H](C)OC2=O)c1OCOC(C)=O` [F252], with 0 to 80%; and `C=C(C)CO[C@H]1CCC[C@H](NC(=O)c2nccc(OC)c2OCOC(=O)C(C)C)C(=O)O[C@@H](C)[C@@H]1OC` [F253], with 80 to 100%; and `COc1ccnc(C(=O)N[C@H]2CCC[C@H](OCC(C)C)[C@@H](OC)[C@H](C)OC2=O)c1OCOC(=O)C(C)C` [F254], with 80 to 100%.
On the same count and under the same terms, then `COc1ccnc(C(=O)N[C@H]2CCC[C@H](Oc3ccccc3)[C@@H](OC)[C@H](C)OC2=O)c1OCOC(=O)C(C)C` [F255], with 80 to 100%.

(Values after US9681664B2, “Macrocyclic picolinamides as fungicides” (Dow Agrosciences LLC, priority 2012, dated 2017).)
